Data taken from ChEMBL document CHEMBL5233255, “Natural and nature-inspired stilbenoids as antiviral agents” (Eur J Med Chem, 2020).
Converted amounts (≈) assume the structure as drawn.

What was measured:
Human alphaherpesvirus 1 [1] = assay: Antiviral activity against HSV-1 15577 infected in African green monkey Vero cells incubated for 3 days by plaque reduction assay; assay type: functional, organism-based; conditions: Human alphaherpesvirus 1, 15577, Vero, 72 h
Human alphaherpesvirus 1 [2] = assay: Antiviral activity against HSV-1 clinical isolate infected in African green monkey Vero cells incubated for 3 days by plaque reduction assay; assay type: functional, organism-based; conditions: Human alphaherpesvirus 1, Vero, 72 h
Human alphaherpesvirus 2 = assay: Antiviral activity against HSV-2 333 infected in African green monkey Vero cells incubated for 3 days by plaque reduction assay; assay type: functional, organism-based; conditions: Human alphaherpesvirus 2, 333, Vero, 72 h
[3] = Cytotoxicity against HEK293T cells; assay type: toxicity, cell-based, HEK-293T; conditions: human, read-out: TC50 (the source's name)
[4] = test system: Human immunodeficiency virus 1; assay: Antiviral activity against HIV-1 infected in HEK293T cells; assay type: functional, organism-based; conditions: Human immunodeficiency virus 1, HEK-293T
Influenza A virus [5] = assay: Antiviral activity against influenza A virus A/PR/8/34 (H1N1) infected in human A549 cells assessed as inhibition of RANTES production incubated for 48 hrs by ELISA; assay type: functional, organism-based; conditions: A549, 48 h
[6] = Cytotoxicity against human A549 cells assessed as reduction in cell viability by Alamar blue assay; assay type: toxicity, cell-based
Hepatitis C virus [7] = assay: Antiviral activity against Hepatitis C virus infected in human Huh7.5 cells assessed as reduction in viral replication; assay type: functional, organism-based, Hepacivirus hominis
[8] = Cytotoxicity against human Huh7.5 cells infected with Hepatitis C virus assessed as reduction in cell viability; assay type: toxicity, cell-based, Huh-7.5
[9] = Inhibition of HIV-1 integrase catalysed 3' processing activity by densitometric analysis; set-up: species or system Human immunodeficiency virus 1
[10] = Inhibition of recombinant HIV-1 integrase catalysed strand transfer activity measured after 60 mins by electrochemiluminescent plate-based assay; set-up: species or system Human immunodeficiency virus 1
[11] = test system: Human immunodeficiency virus 1; assay: Antiviral activity against VSV pseudo-typed HIV-1 infected in human MT4 cells expressing eGFP under control of HIV-1 LTR promoter sequence; assay type: functional, organism-based; conditions: Human immunodeficiency virus 1, MT4
[12] = Cytotoxicity against human MT4 cells expressing eGFP under control of HIV-1 LTR promoter sequence; assay type: toxicity, cell-based
[13] = Selectivity index, ratio of CC50 for cytotoxicity against human MT4 cells expressing eGFP under control of HIV-1 LTR promoter sequence to EC50 for antiviral activity against HIV-1 infected in human MT4 cells expressing eGFP under control of HIV-1 LTR promoter sequence; assay type: toxicity, cell-based; conditions: read-out: Ratio CC50/EC50
dengue virus type 2 = assay: Antiviral activity against Dengue virus 2 New Guinea C infected in human Huh-7 cells assessed as reduction in virus induced cytopathic effect incubated for 3 days by trypan blue staining based assay; assay type: functional, organism-based; conditions: Huh-7, 72 h
[14] = Cytotoxicity against human Huh-7 cells assessed as reduction in cell viability incubated for 3 days by MTT assay; assay type: toxicity, cell-based; conditions: time 3 day
[15] = Selectivity index, ratio of CC50 for cytotoxicity against human Huh-7 cells to EC50 for Dengue virus 2 New Guinea C infected in human Huh-7 cells; assay type: toxicity, cell-based; conditions: read-out: Ratio CC50/EC50
[16] = Cytotoxicity against human C8166 cells assessed as inhibition of cell growth by MTT assay; assay type: toxicity, cell-based
[17] = test system: Human immunodeficiency virus 1; assay: Antiviral activity against HIV-1 infected in human C8166 cells assessed as inhibition of viral replication; assay type: functional, organism-based; conditions: Human immunodeficiency virus 1, C8166
[18] = Therapeutic index, ratio of CC50 for cytotoxicity against human C8166 cells to EC50 for antiviral activity against HIV-1 infected in C8166 cells; assay type: toxicity, cell-based; conditions: read-out: Ratio CC50/EC50
Influenza A virus [19] = assay: Antiviral activity against influenza A virus A/Guangdong/243/72 ([…]) infected in MDCK cells assessed as inhibition of virus-induced cytopathic effect; assay type: functional, organism-based
[20] = Selectivity index, ratio of CC50 for cytotoxicity against MDCK cells to IC50 for influenza A virus A/Guangdong/243/72 ([…]) infected in MDCK cells; assay type: toxicity, cell-based; conditions: dog, read-out: Ratio CC50/IC50
[21] = Cytotoxicity against HCV RNA-transfected human Huh7.5 cells assessed as reduction in cell viability; assay type: toxicity, cell-based, Huh-7.5; conditions: HCV RNA-transfected Huh7.5 cells
Hepatitis C virus [22] = assay: Antiviral activity against Hepatitis C virus genotype 2 infected in renilla luciferase-J6/JFH1 RNA-transfected human Huh7.5 cells assessed as reduction in viral replication incubated for 72 hrs by qRT-PCR analysis; assay type: functional, organism-based, Hepacivirus hominis; conditions: genotype 2, Huh7.5, 72 h
Hepatitis C virus [23] = assay: Antiviral activity against Hepatitis C virus genotype 1 infected in Bart79I RNA-transfected human Huh7.5 cells assessed as reduction in viral replication incubated for 24 to 72 hrs by RT-PCR assay; assay type: functional, organism-based, Hepacivirus hominis; conditions: genotype 1, Huh7.5
Hepatitis C virus [24] = assay: Antiviral activity against Hepatitis C virus genotype 2 infected in human Huh7.5 cells assessed as reduction in viral replication by RT-PCR assay; assay type: functional, organism-based, Hepacivirus hominis; conditions: genotype 2, Huh7.5

Compound Oc1cc(O)cc(-c2cc3ccc(O)cc3o2)c1 [MORACIN M] has an IC50 (Human alphaherpesvirus 1 [1]) of 2.5 mg/L (≈ 10.3 µM), an IC50 (Human alphaherpesvirus 1 [2]) of 2.5 mg/L (≈ 10.3 µM) and an IC50 (Human alphaherpesvirus 2) of 2.5 mg/L (≈ 10.3 µM).

Oc1ccc(-c2oc3ccccc3c2-c2cc(O)cc(O)c2)cc1 showed a CC50 [3] of 108 µM and an EC50 [4] of 65.1 µM.

Oc1ccc([C@H]2c3c(O)cc(O)cc3[C@H]3c4c(cc(O)cc4[C@@H]2c2cc(/C=C/c4cc(O)cc5c4[C@H](c4cc(O)cc(O)c4)[C@@H](c4ccc(O)cc4)O5)ccc2O)O[C@@H]3c2ccc(O)cc2)cc1 [VITISIN A] showed an EC50 (Influenza A virus [5]) of 0.27 µM, a CC50 [6] of 22.4 µM and an EC50 (Hepatitis C virus [7]) of 0.035 µM. The CC50 [8] was over 10 µM.

In the case of Nc1ccc(/N=N/c2ccc(/C=C/c3ccc(/N=N/c4ccc(N)c5ccc(S(=O)(=O)O)cc45)cc3S(=O)(=O)O)c(S(=O)(=O)O)c2)c2ccc(S(=O)(=O)O)cc12, the IC50 [9] is reported as 3.2 µM, the IC50 [10] is reported as 3.2 µM and the EC50 [11] is reported as 15.3 µM. It also gave a CC50 [12] of over 100 µM and a selectivity ratio [13] of over 6.5.

In the case of COc1cc(/C(C)=C/c2cc3ccccc3[nH]2)cc(OC)c1OC, the EC50 (dengue virus type 2) is reported as 0.00812 µM, the CC50 at 72 h [14] is reported as 1.7 µM and the selectivity ratio [15] is reported as 209.

With OC[C@H]1O[C@@H](Oc2cc(O)cc(-c3cc4ccc(O)cc4o3)c2)[C@H](O)[C@@H](O)[C@@H]1O the IC50 (Human alphaherpesvirus 1 [1]) was 2.5 mg/L (≈ 6.18 µM), the IC50 (Human alphaherpesvirus 1 [2]) was 2.5 mg/L (≈ 6.18 µM) and the IC50 (Human alphaherpesvirus 2) was 2.5 mg/L (≈ 6.18 µM).

For Oc1ccc(-c2ccc(-c3cc(O)cc(O)c3)cc2)cc1, the CC50 [3] was 179 µM and the EC50 [4] was 8.8 µM.

Oc1ccc([C@@H]2c3c(O)cc(O)cc3[C@@H]3c4c(cc(O)c5c4[C@@H]2[C@H](c2ccc(O)cc2)[C@H]5c2cc(O)cc(O)c2)O[C@H]3c2ccc(O)cc2)cc1 showed an EC50 (Influenza A virus [5]) of 0.57 µM and a CC50 [6] of over 1000 µM.

Work on O=S(=O)([O-])Oc1cc(/C=C/c2ccc(O)cc2)cc(O[C@@H]2O[C@H](CO)[C@@H](O)[C@H](O)[C@H]2O)c1.[Na+] yielded a CC50 [16] of 527 mg/L, an EC50 [17] of 89.7 mg/L and a selectivity ratio [18] of 5.87.

Work on COc1cc(/C=C/c2cc(O)cc(O)c2)ccc1O yielded an IC50 (Influenza A virus [19]) of 4.28 mg/L (≈ 16.6 µM) and a selectivity ratio [20] of 8.99.

In the case of Oc1ccc(-c2ccc(-c3cc(O)cc(O)c3)[nH]2)cc1, the EC50 [4] is reported as over 75 µM.

O=S(=O)([O-])O[C@H]1[C@H](O)[C@@H](O)[C@H](Oc2cc(O)cc(/C=C/c3ccc(O)cc3)c2)O[C@@H]1CO.[Na+] gave a CC50 [16] of 813 mg/L, an EC50 [17] of over 200 mg/L and a selectivity ratio [18] of under 4.06.

Work on Oc1ccc(-c2cnc(-c3cc(O)cc(O)c3)nc2)cc1 yielded an EC50 [4] of over 75 µM.

Compound O=S(=O)([O-])O[C@H]1[C@H](Oc2cc(O)cc(/C=C/c3ccc(O)cc3)c2)O[C@H](CO)[C@@H](O)[C@@H]1O.[Na+] has a CC50 [16] of over 2000 mg/L, an EC50 [17] of 153 mg/L and a selectivity ratio [18] of over 13.

O=S(=O)([O-])Oc1ccc(/C=C/c2cc(O)cc(O[C@@H]3O[C@H](CO)[C@@H](O)[C@H](O)[C@H]3O)c2)cc1.[Na+] showed a CC50 [16] of over 2000 mg/L and an EC50 [17] of over 200 mg/L.

Work on Oc1ccc(-c2cc(-c3cc(O)cc(O)c3)on2)cc1 yielded an EC50 [4] of over 75 µM.

In the case of Oc1cc(O)cc(-c2ccc(-c3ccncc3)cc2)c1, the EC50 [4] is reported as over 100 µM.

Oc1ccc(/C=C/c2cc(O)cc3c2[C@@H](c2cc(O)cc(O)c2)[C@H](c2ccc(O)cc2)O3)cc1 [EPSILON-VINIFERIN] gave an EC50 (Influenza A virus [5]) of 10.1 µM, a CC50 [6] of 54.7 µM and an EC50 (Hepatitis C virus [7]) of 0.159 µM. It also gave a CC50 [8] of over 10 µM, a CC50 [21] of over 10 µM and an EC50 (Hepatitis C virus [22]) of 0.1 µM. The EC50 (Hepatitis C virus [23]) was 7 µM and the EC50 (Hepatitis C virus [24]) was 2.9 µM.

Oc1ccc([C@@H]2c3c(O)cc(O)cc3[C@H]3c4c(cc(O)cc4[C@@H]2O)O[C@@H]3c2ccc(O)cc2)cc1 showed an EC50 (Hepatitis C virus [7]) of 5.74 µM and a CC50 [8] of over 10 µM.

OC[C@H]1O[C@@H](Oc2cc(O)cc(/C=C/c3ccc(O)cc3)c2)[C@H](O)[C@@H](O)[C@@H]1O [PICEID] gave a CC50 [16] of over 200 mg/L and an EC50 [17] of over 200 mg/L.

In the case of COc1cc(/C(C#N)=C\c2cc3ccccc3s2)cc(OC)c1OC, the EC50 (dengue virus type 2) is reported as 0.00722 µM, the CC50 at 72 h [14] is reported as 1.9 µM and the selectivity ratio [15] is reported as 263.

Compound COc1cc([C@H]2Oc3c(ccc(/C=C/c4cc(O)cc(O)c4)c3OC)[C@@H]2c2cc(O)cc(O)c2)ccc1O has an IC50 (Influenza A virus [19]) of 12 mg/L (≈ 23.3 µM) and a selectivity ratio [20] of 9.6.
